# Assay results published in US12522575B2, “2-diarylmethyl-4-aminotetrahydropyran derivatives and related compounds as anticancer, antiinflammatory, antifibrotic and neuroprotective agents” (Atux Iskay LLC, priority 2021, dated 2026).
# Tests used:
# A172 glioblastoma cells = assay: A172 cell viability / proliferation (CellTiter-Glo); format: cell-based; details: Homo sapiens, A 172, 48-72 hours treatment, read-out: IC50 for A172 cell growth
# Procedure: (§1) A172 glioblastoma cells were cultured in Dulbecco's modified Eagle's medium (DMEM) supplemented with 10% fetal bovine serum and 1% Penicillin-streptomycin. Incubation was performed at 37° C. and 5% CO2.
# A172 cells were seeded at 3000-3500 cells/90 μL growth medium per well on 96-well tissue culture plates. Cells were incubated overnight to allow them to recover and reattach. Next day cells were treated with tested compounds and incubated for 48-72 hours.
# Cell Proliferation assays in triplicate were performed at each concentration. Compounds test range was 1-30 µM (0, 5, 10, 15, 20, 25, and 30). The compounds were dissolved in DMSO. […]
# After treatment, cells were allowed to equilibrate at room temperature for 1/2 to one hour. Cell proliferation was measured by Luminescence quantification using Promega CellTiter-Glo Luminescent Cell Viability Assay. […] Luminescence intensity was measured using the Spectramax i3× plate reader.
# The Luminescence intensity data were analyzed using the computer software Graphpad Prism. In the absence of the compound, the luminescence intensity (Lt) in each data set was defined as 100% cell viability. The percent cell in the presence of each compound was calculated according to the following equation: % Cell=L/Lt, were L=the luminescence intensity in the presence of the compound. […]
# [1] = test system: phosphatase activity in ApoE transfected A172 glioblastoma cells; assay: Cellular in vitro phosphatase activation assay (Malachite Green) in ApoE transfected A172 cells; format: cell-based; details: 24 hours
# Procedure: Cellular in vitro phosphatase activation assay was performed using the method of Theendakara et al, Molecular and Cellular Neuroscience, 83 (2017), pages 83-91 which is described below:
# as §1
# A172 cells were seeded at 5×10^5 cells/2.5 ml growth medium (without antibiotics) per well on 6-well tissue culture plates. Cells were incubated overnight to allow them to recover and reattach. […]
# After 24 hrs, cells were washed twice with imidazole buffer and lysed using NP-40 Lysis buffer. […] The amount of phosphate release in the assay was determined by measuring absorbance at 620 nm using the Spectramax i3x plate reader.
# The absorbance intensity data were analyzed using the computer software Graphpad Prism. The phosphate concentration for each sample was determined from the standard curve using phosphate standard concentrations. In order to compare samples, the first set (column A) were there was no transfection performed and no compound added, was designated a baseline; the absorbance measurement in this column was set as 100% phosphatase activity.
# [2] = test system: bleomycin-induced pulmonary fibrosis; assay: Bleomycin induced lung fibrosis model in mice; format: in vivo
# Description: Bleomycin exposure reproducibly induces lung fibrosis in mice and bleomycin induced lung fibrosis is commonly used as an animal model to assess the efficacy of experimental therapeutics for idiopathic pulmonary fibrosis, see for example Tashiro et al, “Exploring Animal Models that Resemble Idiopathic Pulmonary Fibrosis”, Front. Med. 4:118 (2017). doi: 10.3389/fmed.2017.0018. Herein presented are data on the efficacy of Example 6 (Ex-6) in cellular models of lung fibrosis and in a mouse bleoycin induced lung fibrosis model, see FIGS. 1 through 8.
# In brief, the animal model consisted of bleomycin administration using a combined protocol previously described by Wyman et al (Wyman, A. E., et al., “Sirtuin 7 is decreased in pulmonary fibrosis and regulates the fibrotic phenotype of lung fibroblasts”. Am J Physiol Lung Cell Mol Physiol, 2017. 312 (6): p. L945-L958.) and Geraghty et al (Geraghty, P. and Foronjy, R. ‘Protein Transfection of Mouse Lung’. J Vis Exp, (75), e50080 2013 May 15). After sedation was achieved (87.5 mg/kg Ketamine/12.5 mg/kg xylazine), mice were suspended from their upper incisors (see Geraghty et al. for visual publication of intratracheal delivery). The oropharynx was opened so that a catheter/Penn Century MicroSprayer (Penn-Century, Wyndmoor, Philadelphia, PA) can be introduced into the trachea. The vocal cords and trachea were visualized by placing a light source against the trachea of the mouse. The MicroSprayer was inserted intratracheally, and the bleomycin solution (0.075 U/mouse) was instilled in 50 μL of sterile PBS. The MicroSprayer creates a mist rather than droplets, for better tissue distribution and reduces the risk of animal suffocation. Control mice were instilled with 50 μl of sterile PBS with no additives. This intratracheal maneuvering and delivery took about 30 seconds to complete. Animals were allowed to recover from sedation. Water was supplemented with the compound/drug beginning either before, 7 or 20 days after bleomycin treatment.
# Ex-6 was dosed at 5 mg/kg in the bleomycin induced fibrosis. In vivo data is shown in FIG. 3: C57BL/6J mice were orally administered 5 mg/kg Ex-6 once daily, beginning on the same day as bleomycin (BLM) treatment to test if activation of PP2A could prevent establishment of idiopathic pulmonary fibrosis (IPF). […] Differences were shown in compliance, tissue elastance, and forced vital capacity of 3-month-old C57BL/6J mice following administration of vehicle or Example 6 after tracheal instillation of saline or bleomycin, indicating prevention of bleomycin-induced pulmonary fibrosis in mice by administration of Example 6. Graphs were represented as mean±S.E.M, where n=7 animals per group. P values, shown when comparing both treatments connected by a line, were determined by Student t-tests. […]
# [3] = test system: lung fibroblasts from healthy subjects; assay: Fibrosis associated gene expression in lung fibroblasts; format: cell-based; details: 1 μM, 24 hours, TGF-β (FIG. 1)
# Procedure: Each dot represents cells from a different subject. Student t-tests or 2-way ANOVA were performed and a p-value […] was denoted as * when comparing to the vehicle treated groups or ** when comparing to the TGF-β vehicle groups.
# Compounds of the present invention activate PP2A responses in fibroblasts from healthy subjects. Lung fibroblasts from 6 subjects were stimulated with 1 micromolar of example compounds for 24 hours.
smiles,measurement,setting,value
"O=S(=O)(NC1CCOC(C2c3ccc(F)cc3CCc3cc(F)ccc32)C1)c1ccc(OC(F)(F)F)cc1 (stereo not shown) [Example 6, N-(2-(2,8-difluoro-10,11-dihydro-5H-dibenzo[a,d][7]annulen-5-yl)tetrahydro-2H-pyran-4-yl)-4-(trifluoromethoxy)benzenesulfonamide]",IC50,A172 glioblastoma cells,9.9 µM
same,% increase from ApoE transfected cell at 5 μM test compound concentration,[1],6.8%
same,"bleomycin-induced PV loop changes, compliance, tissue elastance and forced vital capacity (FVC)","[2]; 5 mg/kg orally once daily from the day of bleomycin, C57BL/6J mice (FIG. 6)",prevented
same,collagen deposition in lung (trichrome staining),"[2]; bleomycin mice, vs vehicle control (FIG. 7)",attenuates collagen deposition
same,"bleomycin-induction of fibrosis related genes Acta2, Ccn2, Col1a1, FN1 in lung tissue","[2]; bleomycin mice, vs vehicle control (FIG. 8)",suppressed
same,"toxicity in mice (external appearance, behavior, body weight)","[2]; three-week administration, vs vehicle groups",no obvious toxicity
same,pro-fibrotic gene expression,[3],suppression of pro-fibrotic gene expression
